According to patent US20240391948A1, “NOVEL COMPOUND THAT INHIBITS TNF-ALPHA GENERATION AND INFLAMMASOME ACTIVITY AND PREPARATION METHOD THEREFOR” (SHAPERON INC., priority 2021, published 2024):

Columns and labels:
Type in all cases: cell-based
[1] = system: J774A.1 (Mouse BALB/c monocyte macrophage cell line) cells; assay: LPS-induced TNF-α secretion inhibition in J774A.1 cells; details: J774.A1, 1 μM compound, graded compared to taurodeoxycholic acid (positive control), read-out: TNF-α production inhibition grade
Procedure: (§1) To evaluate anti-inflammatory efficacy, an inflammatory response was induced in J774A.1 (Mouse BALB/c monocyte macrophage cell line) cells derived from mouse macrophages by LPS (lipopolysaccharide) and LPS+ATP (adenosine triphosphate), and the efficacy of taurine-bile acid derivatives to inhibit the production of inflammatory cytokines (IL-1β, TNF-α) was measured. After treating J774A.1 cells with 1 μM of a taurine-bile acid derivative, the degree to which the secretion of TNF-α among cytokines was suppressed was measured in the experimental group in which an inflammatory response was induced by LPS, and the extent to which IL-1β secretion among cytokines was suppressed was measured in the experimental group in which an inflammatory response was induced with LPS+ATP. The ability of taurine-bile acid derivatives to inhibit cytokine production was graded compared to taurodeoxycholic acid, a positive control. The grading criteria are A: over 100%, B: over 50% and under 100%, C: between 20% and under 50%, and D: under 20%.

[2] = system: J774A.1 (Mouse BALB/c monocyte macrophage cell line) cells; assay: LPS+ATP-induced IL-1β secretion inhibition in J774A.1 cells; details: J774.A1, 1 μM compound, graded compared to taurodeoxycholic acid (positive control), read-out: IL-1β production inhibition grade
Procedure: as §1

[3] = system: U937 cells (human monocytic cell line); assay: Pam2CSK4-induced TNF-α secretion inhibition in PMA-differentiated U937 cells; details: U-937, U937 cells differentiated with PMA, read-out: TNF-α production inhibition grade (IC50)
Procedure: (§2) To evaluate anti-inflammatory efficacy, U937 cells (human monocytic cell line) were differentiated into macrophages using PMA (phorbol 12-myristate 13-acetate) and then induced an inflammatory response with Pam2CSK4 (Pam2CysSerLys4) or BzATP (2′(3′)—O-(4-Benzoylbenzoyl)adenosine 5′-triphosphate), the efficacy of taurine-bile acid derivatives in suppressing inflammatory cytokine (IL-1β, TNF-α) production was measured.
(§3) Using PMA, U937 cells were differentiated into macrophages, and the extent of TNF-α secretion inhibition was measured in an experimental group where taurine-bile acid derivatives was treated, followed by induction of inflammatory response with Pam2CSK4, and in the experimental group in which an inflammatory response was induced with BzATP, the extent to which IL-1β secretion among cytokines was suppressed was measured.
(§4) The ability of taurine-bile acid derivatives to inhibit cytokine production was expressed in terms of IC50 (μM) values. The standards for TNF α inhibition ability are A: less than 0.5, B: 0.5 to less than 1.0, C: 1.0 to less than 2.0, D: 2.0 or more, and the IL-1β inhibition ability grade standards are A: less than 0.05, B: 0.05 to less than 0.10, C: 0.10 or more and less than 0.20, D: 0.20 or more.

[4] = system: U937 cells (human monocytic cell line); assay: BzATP-induced IL-1β secretion inhibition in PMA-differentiated U937 cells; details: U-937, U937 cells differentiated with PMA, read-out: IL-1β production inhibition grade (IC50)
Procedure: as §2, §3, §4

**Q.** `C[C@H](CCC(=O)NCCCS(=O)(=O)O)[C@H]1CC[C@H]2[C@@H]3CC[C@@H]4C[C@H](O)CC[C@]4(C)[C@H]3C[C@H](O)[C@]12C` [NC10002] was tested. Which inhibition at 1 µM [1] did it give?
**A.** Its inhibition at 1 µM is > 100%.

**Q.** What about the inhibition at 1 µM [2] of the same compound?
**A.** The inhibition at 1 µM was > 100%.

**Q.** And the IC50 [3]?
**A.** The IC50 was < 500 nM.

**Q.** And the IC50 [4]?
**A.** Its IC50 is < 50 nM.

**Q.** With `C[C@H](CCC(=O)N1CC[C@@H](S(=O)(=O)O)C1)[C@H]1CC[C@H]2[C@@H]3[C@H](O)C[C@@H]4C[C@H](O)CC[C@]4(C)[C@H]3C[C@H](O)[C@]12C` [NC20034] as the compound, how does the inhibition at 1 µM [1] read?
**A.** The inhibition at 1 µM was < 20%.

**Q.** What about the inhibition at 1 µM [2] of the same compound?
**A.** Its inhibition at 1 µM is < 20%.

**Q.** What about the IC50 [3] of the same compound?
**A.** Its IC50 is 1000 to 2000 nM.

**Q.** And the IC50 [4]?
**A.** The IC50 was 50 to 100 nM.

**Q.** Which results are given for `C[C@H](CCC(=O)N[C@H](CO)CS(=O)(=O)O)[C@H]1CC[C@H]2[C@@H]3[C@H](O)C[C@@H]4C[C@H](O)CC[C@]4(C)[C@H]3C[C@H](O)[C@]12C` [NC20025]?
**A.** inhibition at 1 µM [1]: < 20%; inhibition at 1 µM [2]: < 20%; IC50 [3]: ≥ 2000 nM; IC50 [4]: ≥ 200 nM

**Q.** How did the inhibition at 1 µM [1] turn out when `C[C@H](CCC(=O)N(C)CCS(=O)(=O)O)[C@H]1CC[C@H]2[C@@H]3CC[C@@H]4C[C@H](O)CC[C@]4(C)[C@H]3CC[C@]12C` [NC10055] was run?
**A.** The inhibition at 1 µM was < 20%.

**Q.** What about the inhibition at 1 µM [2] of the same compound?
**A.** The inhibition at 1 µM was 50 to 100%.

**Q.** What about the IC50 [3] of the same compound?
**A.** Its IC50 is 1000 to 2000 nM.

**Q.** What about the IC50 [4] of the same compound?
**A.** Its IC50 is < 50 nM.

**Q.** For `CC[C@H]1[C@@H](O)[C@@H]2[C@H](C[C@H](O)[C@]3(C)[C@@H]([C@H](C)CCC(=O)N(CCO)CCS(=O)(=O)O)CC[C@@H]23)[C@@]2(C)CC[C@@H](O)C[C@@H]12` [NC50006], which inhibition at 1 µM [1] is on record?
**A.** Its inhibition at 1 µM is < 20%.

**Q.** And the inhibition at 1 µM [2]?
**A.** The inhibition at 1 µM was < 20%.

**Q.** And the IC50 [3]?
**A.** Its IC50 is ≥ 2000 nM.

**Q.** What about the IC50 [4] of the same compound?
**A.** Its IC50 is < 50 nM.

**Q.** For `CC(C)[C@@H](CS(=O)(=O)O)NC(=O)CC[C@@H](C)[C@H]1CC[C@H]2[C@@H]3[C@H](O)C[C@@H]4C[C@H](O)CC[C@]4(C)[C@H]3C[C@H](O)[C@]12C` [NC20016], which inhibition at 1 µM [1] is on record?
**A.** The inhibition at 1 µM was < 20%.

**Q.** And the inhibition at 1 µM [2]?
**A.** Its inhibition at 1 µM is > 100%.

**Q.** And the IC50 [3]?
**A.** Its IC50 is 1000 to 2000 nM.

**Q.** And the IC50 [4]?
**A.** Its IC50 is < 50 nM.

**Q.** Which inhibition at 1 µM [1] does the source give for `CC[C@H]1[C@@H](O)[C@@H]2[C@H](CC[C@]3(C)[C@@H]([C@H](C)CCC(=O)N(C)CCS(=O)(=O)O)CC[C@@H]23)[C@@]2(C)CC[C@@H](O)C[C@@H]12` [NC40004] here?
**A.** The inhibition at 1 µM was < 20%.

**Q.** And the inhibition at 1 µM [2]?
**A.** The inhibition at 1 µM was 50 to 100%.

**Q.** What about the IC50 [3] of the same compound?
**A.** Its IC50 is ≥ 2000 nM.

**Q.** What about the IC50 [4] of the same compound?
**A.** The IC50 was ≥ 200 nM.

**Q.** With `C[C@H](CCC(=O)N(CCS(=O)(=O)O)Cc1cccnc1)[C@H]1CC[C@H]2[C@@H]3[C@H](O)C[C@@H]4C[C@H](O)CC[C@]4(C)[C@H]3C[C@H](O)[C@]12C` [NC20036] as the compound, how does the inhibition at 1 µM [1] read?
**A.** The inhibition at 1 µM was < 20%.

**Q.** And the inhibition at 1 µM [2]?
**A.** The inhibition at 1 µM was < 20%.

**Q.** And the IC50 [3]?
**A.** The IC50 was 500 to 1000 nM.

**Q.** What about the IC50 [4] of the same compound?
**A.** Its IC50 is 50 to 100 nM.

**Q.** How did the inhibition at 1 µM [1] turn out when `C[C@H](CCC(=O)NC1(CS(=O)(=O)O)CC1)[C@H]1CC[C@H]2[C@@H]3CC[C@@H]4C[C@H](O)CC[C@]4(C)[C@H]3C[C@H](O)[C@]12C` [NC10047] was run?
**A.** The inhibition at 1 µM was < 20%.

**Q.** And the inhibition at 1 µM [2]?
**A.** The inhibition at 1 µM was 20 to 50%.

**Q.** And the IC50 [3]?
**A.** The IC50 was 500 to 1000 nM.

**Q.** What about the IC50 [4] of the same compound?
**A.** Its IC50 is 100 to 200 nM.

**Q.** What does the source list for `C[C@H](CCC(=O)N1CC(S(=O)(=O)O)C1)[C@H]1CC[C@H]2[C@@H]3[C@H](O)C[C@@H]4C[C@H](O)CC[C@]4(C)[C@H]3C[C@H](O)[C@]12C` [NC20012]?
**A.** inhibition at 1 µM [1]: < 20%; inhibition at 1 µM [2]: > 100%; IC50 [3]: 500 to 1000 nM; IC50 [4]: < 50 nM

**Q.** What does the source list for `CC[C@H]1[C@@H](O)[C@@H]2[C@H](CC[C@]3(C)[C@@H]([C@H](C)CCC(=O)N[C@H]4CCCC[C@H]4S(=O)(=O)O)CC[C@@H]23)[C@@]2(C)CC[C@@H](O)C[C@@H]12` [NC40027]?
**A.** inhibition at 1 µM [1]: < 20%; inhibition at 1 µM [2]: 50 to 100%; IC50 [3]: ≥ 2000 nM; IC50 [4]: ≥ 200 nM

**Q.** `C[C@H](CCC(=O)N1CC[C@H](S(=O)(=O)O)C1)[C@H]1CC[C@H]2[C@@H]3CC[C@@H]4CC(=O)CC[C@]4(C)[C@H]3CC[C@]12C` [NC30033] was tested. Which inhibition at 1 µM [1] did it give?
**A.** The inhibition at 1 µM was < 20%.

**Q.** And the inhibition at 1 µM [2]?
**A.** The inhibition at 1 µM was 20 to 50%.

**Q.** And the IC50 [3]?
**A.** Its IC50 is 500 to 1000 nM.

**Q.** And the IC50 [4]?
**A.** Its IC50 is 50 to 100 nM.

**Q.** What does the source list for `CC[C@H]1[C@@H](O)[C@@H]2[C@H](CC[C@]3(C)[C@@H]([C@H](C)CCC(=O)NC(C)(C)CS(=O)(=O)O)CC[C@@H]23)[C@@]2(C)CC[C@@H](O)C[C@@H]12` [NC40013]?
**A.** inhibition at 1 µM [1]: < 20%; inhibition at 1 µM [2]: > 100%; IC50 [3]: 1000 to 2000 nM; IC50 [4]: < 50 nM
